In patent EP3381898A1, “SYMMETRICAL TRIS-ARYL-AMIDE DERIVATIVES AND THEIR USE AS ANTI-HEPARANASE” (priority 2017, dated 2018):

Experiments:
Format in all cases: cell-based
[1] = tested on: U2OS (human osteosarcoma); test: Matrigel cell invasion assay; settings: Homo sapiens, read-out: Invasion Assay Inhibition U2OS
Method: (§1) Heparanase inhibitors were then evaluated for their activity on the invasive potential of HT1080 (human fibrosarcoma), U87MG (human glioblastoma astrocytoma) and U2OS (human osteosarcoma) human cell lines, using the Matrigel cell invasion assay which allows to assess the cell invasion ability of malignant and normal cells.
(§2) Invasion assay was performed using BioCoat cell culture inserts (BioCoat 8.0µm PET Membrane 24 Well Permeable Supports, Corning). Filters were coated with 100 µl of 300 µg/ml Matrigel dissolved in coating buffer (0.01 M Tris pH 8.0, 0.7% NaCl) (Becton-Dickinson Sciences). DMEM (Dulbecco's Modified Eagle's Medium) containing 5% FBS was added to the lower chambers. Cells were pre-treated with heparanase inhibitors for 24 h, detached and added to the upper chambers in media containing the inhibitors. Cells were allowed to invade for 24 h at 37°C in a CO2 incubator and then unmigrated cells were removed from the upper chamber with a cotton swab. The invading cells were fixed, stained with 0.1% crystal violet for 10 min at room temperature, photographed and counted under inverted microscope.
(§3) Test compounds were analyzed at fixed concentration (2.5 µM) for several fields, in duplicates. Activity of test compounds was compared to the reference compound. Activity of most interesting compound was confirmed in a second cell invasion assay. Data were expressed as the percent invasion with respect to cell migration through uncoated insert membrane.
(§4) Table 3. […] In Invasion assay, data were expressed as the percent invasion (range) with respect to cell migration through uncoated insert membrane. In Adhesion assay, data were expressed as the percent of adhesion with respect to the control (100%).

[2] = tested on: HT1080 (human fibrosarcoma); test: Matrigel cell invasion assay; settings: HT-1080, read-out: Invasion Assay Inhibition HT1080
Method: as §1, §2, §3, §4

[3] = tested on: U87MG (human glioblastoma astrocytoma); test: Matrigel cell invasion assay; settings: Homo sapiens, U-87 MG, read-out: Invasion Assay Inhibition U87MG
Method: as §1, §2, §3, §4

[4] = tested on: HT1080 (human fibrosarcoma); test: Cell adhesion assay on matrigel coated wells; settings: 2.5 µM, percent of adhesion with respect to the control (100%)
Method: (§5) Cell surface, non-integrin molecules such as heparan sulfate proteoglycans (HSPGs) may be involved in the regulation of early adhesive stages of cell-ECM interactions. A cell adhesion assay has been employed to determine if the newly designed heparanase inhibitors were able to interfere with adhesion properties of cancer cells.
(§6) HT1080 (human fibrosarcoma) and U87MG (human glioblastoma astrocytoma) cells were treated for 18-20 h with test compounds in complete medium supplemented with 10% FCS. Then cells were collected, washed in complete medium, and added to matrigel coated wells in triplicate, at previously identified optimal seeding density, and incubated at 37 °C in complete medium for times ranging from 15 minutes to 4h, according to the cell line. After incubation, the wells were washed three times with serum-free medium and the remaining firmly attached cells were stained with crystal-violet 0.1%. Optical density was measured at 560 nm by Victor 3 (Perkin-Elmer) plate analyzer. Each experiment was repeated three times.
as §4

[5] = tested on: U87MG (human glioblastoma astrocytoma); test: Cell adhesion assay on matrigel coated wells; settings: 2.5 µM, percent of adhesion with respect to the control (100%)
Method: as §5, §6, §4

Compound: Cn1cc(NC(=O)c2ccc(Oc3ccc(C(=O)Nc4cc(C(=O)Nc5cccc(CC(=O)N[C@@H](Cc6ccccc6)C(=O)O)c5)n(C)c4)cc3)cc2)cc1C(=O)Nc1cccc(CC(=O)N[C@@H](Cc2ccccc2)C(=O)O)c1 [Compound 36e, (2S,2'S)-2,2'-((2,2'-(((4,4'-((4,4'-Oxybis(benzoyl))bis(azanediyl))bis(1-methyl-1H-pyrrole-2,2'-carbonyl))bis(azanediyl))bis(3,1-phenylene))bis(acetyl))bis(azanediyl))bis(3-phenylpropanoic acid)]
- inhibition at 2.5 µM [1]: < 50%
- inhibition at 2.5 µM [2]: 50 to 90%
- inhibition at 2.5 µM [3]: 50 to 90%
- Adhesion Assay (%) HT1080 [4]: 91.2%
- Adhesion Assay (%) U87MG [5]: 73.0%
